Laboratory results reported in patent publication US10597388B2, “Pyridazinone herbicides” (FMC CORPORATION, priority 2014, dated 2020).

Columns and labels:
Type in all cases: in vivo
[1] = system: corn (Zea mays); assay: Test A greenhouse herbicide test, pre- and postemergence; conditions: Postemergence
How it was run: (§1)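 Visual injury ratings, 0 (no effect) to 100 (complete control), versus untreated plants after roughly 10 d in a greenhouse. Compounds, formulated in a surfactant-containing non-phytotoxic solvent, were sprayed on loam–sand soil after sowing (pre) or on one- to two-leaf plants 2–10 cm tall (post).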

[2] = system: foxtail, giant (giant foxtail, Setaria faberii); assay: as above
How it was run: as §1

[3] = system: ryegrass, Italian (Italian ryegrass, Lolium multiflorum); assay: as above
How it was run: as §1

[4] = system: wheat (Triticum aestivum); assay: as above; conditions: Postemergence
How it was run: as §1

[5] = system: blackgrass (Alopecurus myosuroides); assay: Test C greenhouse herbicide test, pre- and postemergence
How it was run: (§2)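 Visual 0–100 injury score (100 = complete control) taken against untreated controls after 13–15 d in greenhouse. Test chemicals, formulated in solvent plus surfactant, applied preemergence to seeds in loam–sand soil or postemergence to 1- to 4-leaf plants (2–18 cm).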

[6] = system: corn (Zea mays); assay: as above
How it was run: as §2

[7] = system: nutsedge, yellow (yellow nutsedge, Cyperus esculentus); assay: as above
How it was run: as §2

[8] = system: pigweed (Amaranthus retroflexus); assay: as above
How it was run: as §2

[9] = system: soybean (Glycine max); assay: as above
How it was run: as §2

[10] = system: velvetleaf (Abutilon theophrasti); assay: as above
How it was run: as §2

[11] = system: waterhemp (common waterhemp, Amaranthus rudis); assay: as above
How it was run: as §2

[12] = 125 g ai/ha, 0 to 100 scale where 0 is no effect and 100 is complete control
[13] = 500 g ai/ha, visual rating after approx. 10 d, 0 to 100 scale (0 no effect, 100 complete control)
[14] = Postemergence, 125 g ai/ha, 0 to 100 scale where 0 is no effect and 100 is complete control
[15] = Postemergence, 500 g ai/ha, visual rating after approx. 10 d, 0 to 100 scale (0 no effect, 100 complete control)
[16] = Preemergence, 125 g ai/ha, 0 to 100 scale where 0 is no effect and 100 is complete control
[17] = Preemergence, 500 g ai/ha, 0 to 100 scale where 0 is no effect and 100 is complete control
[18] = Postemergence, 31 g ai/ha, scale 0 to 100 (0 no effect, 100 complete control)
[19] = Postemergence, 62 g ai/ha, 0 to 100 scale (0 no effect, 100 complete control)
[20] = Postemergence, 250 g ai/ha, scale 0 to 100, 0 no effect, 100 complete control, 13 to 15 d
[21] = postemergence, 125 g ai/ha, scale 0 to 100, 0 no effect, 100 complete control
[22] = 500 g ai/ha, 0 to 100 scale, 0 is no effect, 100 is complete control
[23] = Postemergence, 500 g ai/ha, 0 to 100 scale, 0 is no effect, 100 is complete control
[24] = Postemergence, 31 g ai/ha, 0 to 100 scale (0 no effect, 100 complete control)
[25] = Postemergence, 125 g ai/ha, scale 0 to 100, 0 is no effect, 100 is complete control
[26] = Preemergence, 31 g ai/ha, scale 0 to 100, 0 is no effect, 100 is complete control
[27] = Preemergence, 62 g ai/ha, scale 0 to 100, 0 is no effect, 100 is complete control
[28] = Preemergence, 125 g ai/ha, scale 0 to 100, 0 is no effect, 100 is complete control
[29] = Preemergence, 250 g ai/ha, scale 0 to 100, 0 no effect, 100 complete control
[30] = postemergence, 62 g ai/ha, scale 0 to 100, 0 no effect, 100 complete control

COC(=O)Oc1c(C)nn(C)c(=O)c1-c1ccc(F)c2ccccc12 [Compound 130]
Plant response rating, Corn [1, 12]: 0 | Plant response rating, Corn [1, 13]: 30 | Plant response rating, Foxtail, Giant [2, 14]: 70 | Plant response rating, Foxtail, Giant [2, 15]: 90 | Foxtail, Giant plant response rating [2, 16]: 30 | Plant response rating, Foxtail, Giant [2, 17]: 90 | Plant response rating, Ryegrass, Italian [3, 14]: 100 | Plant response rating, Ryegrass, Italian [3, 15]: 100 | Ryegrass, Italian plant response rating [3, 16]: 100 | Plant response rating, Ryegrass, Italian [3, 17]: 100 | Plant response rating, Wheat [4, 12]: 0 | Plant response rating, Wheat [4, 13]: 30 | Plant response rating, Blackgrass [5, 18]: 30 | Blackgrass plant response rating [5, 19]: 35 | Plant response rating, Blackgrass [5, 20]: 60 | Blackgrass plant response rating [5, 21]: 55 | Plant response rating, Corn [6, 18]: 5 | Corn plant response rating [6, 19]: 5 | Plant response rating, Corn [6, 20]: 15 | Corn plant response rating [6, 21]: 5 | Plant response rating, Nutsedge, Yellow [7, 18]: 55 | Nutsedge, Yellow plant response rating [7, 19]: 75 | Plant response rating, Nutsedge, Yellow [7, 20]: 85 | Nutsedge, Yellow plant response rating [7, 21]: 80 | Plant response rating, Pigweed [8, 18]: 50 | Pigweed plant response rating [8, 19]: 70 | Plant response rating, Pigweed [8, 20]: 90 | Pigweed plant response rating [8, 21]: 90 | Plant response rating, Soybean [9, 18]: 10 | Soybean plant response rating [9, 19]: 15 | Plant response rating, Soybean [9, 20]: 50 | Soybean plant response rating [9, 21]: 25 | Plant response rating, Velvetleaf [10, 18]: 75 | Velvetleaf plant response rating [10, 19]: 70 | Plant response rating, Velvetleaf [10, 20]: 98 | Velvetleaf plant response rating [10, 21]: 98 | Plant response rating, Waterhemp [11, 18]: 70 | Waterhemp plant response rating [11, 19]: 85 | Plant response rating, Waterhemp [11, 20]: 98 | Waterhemp plant response rating [11, 21]: 80

COC(=O)Oc1c(C)nn(C)c(=O)c1-c1c(C)sc2ccc(C)cc12 [Compound 80]
Plant response rating, Corn [1, 12]: 0 | Corn plant response rating [1, 22]: 0 | Plant response rating, Foxtail, Giant [2, 14]: 80 | Foxtail, Giant plant response rating [2, 23]: 80 | Foxtail, Giant plant response rating [2, 16]: 80 | Plant response rating, Foxtail, Giant [2, 17]: 90 | Plant response rating, Ryegrass, Italian [3, 14]: 80 | Ryegrass, Italian plant response rating [3, 23]: 90 | Ryegrass, Italian plant response rating [3, 16]: 90 | Plant response rating, Ryegrass, Italian [3, 17]: 100 | Plant response rating, Wheat [4, 12]: 0 | Wheat plant response rating [4, 22]: 0 | Blackgrass plant response rating [5, 24]: 15 | Plant response rating, Blackgrass [5, 25]: 40 | Plant response rating, Blackgrass [5, 20]: 50 | Plant response rating, Blackgrass [5, 26]: 70 | Plant response rating, Blackgrass [5, 27]: 80 | Plant response rating, Blackgrass [5, 28]: 80 | Blackgrass plant response rating [5, 29]: 90 | Blackgrass plant response rating [5, 30]: 35 | Corn plant response rating [6, 24]: 0 | Plant response rating, Corn [6, 25]: 5 | Plant response rating, Corn [6, 20]: 5 | Plant response rating, Corn [6, 26]: 0 | Plant response rating, Corn [6, 27]: 10 | Plant response rating, Corn [6, 28]: 10 | Corn plant response rating [6, 29]: 25 | Corn plant response rating [6, 30]: 5 | Nutsedge, Yellow plant response rating [7, 24]: 65 | Plant response rating, Nutsedge, Yellow [7, 25]: 85 | Plant response rating, Nutsedge, Yellow [7, 20]: 95 | Plant response rating, Nutsedge, Yellow [7, 26]: 20 | Plant response rating, Nutsedge, Yellow [7, 27]: 25 | Plant response rating, Nutsedge, Yellow [7, 28]: 80 | Nutsedge, Yellow plant response rating [7, 29]: 80 | Nutsedge, Yellow plant response rating [7, 30]: 80 | Pigweed plant response rating [8, 24]: 85 | Plant response rating, Pigweed [8, 25]: 95 | Plant response rating, Pigweed [8, 20]: 95 | Plant response rating, Pigweed [8, 26]: 100 | Plant response rating, Pigweed [8, 27]: 100 | Plant response rating, Pigweed [8, 28]: 100 | Pigweed plant response rating [8, 29]: 100 | Pigweed plant response rating [8, 30]: 90 | Soybean plant response rating [9, 24]: 0 | Plant response rating, Soybean [9, 25]: 5 | Plant response rating, Soybean [9, 20]: 20 | Plant response rating, Soybean [9, 26]: 0 | Plant response rating, Soybean [9, 27]: 0 | Plant response rating, Soybean [9, 28]: 0 | Soybean plant response rating [9, 29]: 0 | Soybean plant response rating [9, 30]: 15 | Velvetleaf plant response rating [10, 24]: 70 | Plant response rating, Velvetleaf [10, 25]: 55 | Plant response rating, Velvetleaf [10, 20]: 90 | Plant response rating, Velvetleaf [10, 26]: 55 | Plant response rating, Velvetleaf [10, 27]: 85 | Plant response rating, Velvetleaf [10, 28]: 90 | Velvetleaf plant response rating [10, 29]: 95 | Velvetleaf plant response rating [10, 30]: 90 | Waterhemp plant response rating [11, 24]: 85 | Plant response rating, Waterhemp [11, 25]: 85 | Plant response rating, Waterhemp [11, 20]: 95 | Plant response rating, Waterhemp [11, 26]: 100 | Plant response rating, Waterhemp [11, 27]: 100 | Plant response rating, Waterhemp [11, 28]: 100 | Waterhemp plant response rating [11, 29]: 100 | Waterhemp plant response rating [11, 30]: 80
